We go through 10 molecules from PMC7757739 (Chemical research in toxicology, 2019).

The target of one data set is T1, human AhR (Homo sapiens, UniProt P35869).
T1 sequence (P35869 11-848): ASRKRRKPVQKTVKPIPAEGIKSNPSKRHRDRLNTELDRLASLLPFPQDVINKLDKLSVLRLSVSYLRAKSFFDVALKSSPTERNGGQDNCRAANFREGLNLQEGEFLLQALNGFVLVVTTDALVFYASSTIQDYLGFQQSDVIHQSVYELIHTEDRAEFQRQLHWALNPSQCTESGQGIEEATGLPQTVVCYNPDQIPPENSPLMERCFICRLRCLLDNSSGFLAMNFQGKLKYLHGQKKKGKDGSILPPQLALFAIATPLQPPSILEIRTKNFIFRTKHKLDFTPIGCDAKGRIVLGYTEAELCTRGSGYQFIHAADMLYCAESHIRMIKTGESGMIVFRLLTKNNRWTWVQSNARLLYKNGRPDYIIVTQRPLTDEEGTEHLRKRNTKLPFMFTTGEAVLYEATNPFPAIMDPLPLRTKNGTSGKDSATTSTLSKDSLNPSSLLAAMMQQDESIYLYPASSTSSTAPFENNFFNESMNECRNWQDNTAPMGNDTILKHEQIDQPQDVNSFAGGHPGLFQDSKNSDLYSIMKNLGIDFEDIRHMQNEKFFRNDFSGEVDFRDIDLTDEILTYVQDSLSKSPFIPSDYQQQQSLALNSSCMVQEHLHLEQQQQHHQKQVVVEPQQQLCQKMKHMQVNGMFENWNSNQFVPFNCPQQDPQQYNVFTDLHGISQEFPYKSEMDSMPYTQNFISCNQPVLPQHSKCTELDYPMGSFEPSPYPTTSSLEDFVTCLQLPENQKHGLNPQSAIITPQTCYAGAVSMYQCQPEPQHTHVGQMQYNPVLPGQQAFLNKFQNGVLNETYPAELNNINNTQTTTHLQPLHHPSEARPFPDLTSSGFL
As to the kind of experiment: AhR-responsive luciferase reporter gene induction in recombinant human hepatoma. Conditions: for potency relative to TCDD, in words / increased potency compared to tryptanthrin (3): 6h; for AhR-dependent reporter gene activity (efficacy), in words: Figure 3. For orientation: A reporter such as luciferase makes a cellular process visible.

In data set [1] the target is T2, mouse AhR (Mus musculus, UniProt P30561). Conditions: mouse H1L7.5c3 cells.
For data set [2], the target named is AhR (Homo sapiens, UniProt P35869). The data set is classed as cell-based. The conditions noted are these: HG2L7.5c1 cells, 6h, Figure 4.
Data set [3] deals with AhR. The conditions noted are these: ref [37]; cited from earlier work.
Data set [4] deals with T2, mouse AhR. As to the kind of experiment: cell-based.
Data set [5] deals with AhR. Conditions: mice or mouse cells; ref [34], [35], [76]; cited from earlier work.

Broadly, the EC50 is the concentration that produces a half-maximal response.

Several values for one entry are separate records, joined by “and”; a condition that tells them apart may be missing. Equal entries are not always repeated. Where two headings read alike, the source gives them in different places.

T2 sequence (P30561 10-805 limits assumed): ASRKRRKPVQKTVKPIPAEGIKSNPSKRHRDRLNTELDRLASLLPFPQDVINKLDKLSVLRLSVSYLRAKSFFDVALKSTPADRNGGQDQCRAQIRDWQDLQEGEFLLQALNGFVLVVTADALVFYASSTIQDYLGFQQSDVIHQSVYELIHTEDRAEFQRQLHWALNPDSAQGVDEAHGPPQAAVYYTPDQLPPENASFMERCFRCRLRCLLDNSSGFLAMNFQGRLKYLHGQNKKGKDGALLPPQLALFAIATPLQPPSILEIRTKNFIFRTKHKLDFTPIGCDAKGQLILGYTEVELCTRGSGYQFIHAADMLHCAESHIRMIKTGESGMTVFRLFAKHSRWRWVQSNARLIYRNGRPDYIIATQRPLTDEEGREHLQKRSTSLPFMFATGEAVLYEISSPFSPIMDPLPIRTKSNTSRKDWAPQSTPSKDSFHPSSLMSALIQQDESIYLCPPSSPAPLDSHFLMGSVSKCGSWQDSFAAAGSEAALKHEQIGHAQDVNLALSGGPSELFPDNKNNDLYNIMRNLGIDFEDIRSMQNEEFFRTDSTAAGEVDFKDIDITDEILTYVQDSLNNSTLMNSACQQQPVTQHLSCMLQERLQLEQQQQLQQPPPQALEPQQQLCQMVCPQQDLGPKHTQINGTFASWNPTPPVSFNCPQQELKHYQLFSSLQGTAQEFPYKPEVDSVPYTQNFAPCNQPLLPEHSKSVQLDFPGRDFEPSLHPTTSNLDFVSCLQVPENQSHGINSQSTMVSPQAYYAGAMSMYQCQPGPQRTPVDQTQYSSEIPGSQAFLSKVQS
T2 sequence (P11499 whole entry partner): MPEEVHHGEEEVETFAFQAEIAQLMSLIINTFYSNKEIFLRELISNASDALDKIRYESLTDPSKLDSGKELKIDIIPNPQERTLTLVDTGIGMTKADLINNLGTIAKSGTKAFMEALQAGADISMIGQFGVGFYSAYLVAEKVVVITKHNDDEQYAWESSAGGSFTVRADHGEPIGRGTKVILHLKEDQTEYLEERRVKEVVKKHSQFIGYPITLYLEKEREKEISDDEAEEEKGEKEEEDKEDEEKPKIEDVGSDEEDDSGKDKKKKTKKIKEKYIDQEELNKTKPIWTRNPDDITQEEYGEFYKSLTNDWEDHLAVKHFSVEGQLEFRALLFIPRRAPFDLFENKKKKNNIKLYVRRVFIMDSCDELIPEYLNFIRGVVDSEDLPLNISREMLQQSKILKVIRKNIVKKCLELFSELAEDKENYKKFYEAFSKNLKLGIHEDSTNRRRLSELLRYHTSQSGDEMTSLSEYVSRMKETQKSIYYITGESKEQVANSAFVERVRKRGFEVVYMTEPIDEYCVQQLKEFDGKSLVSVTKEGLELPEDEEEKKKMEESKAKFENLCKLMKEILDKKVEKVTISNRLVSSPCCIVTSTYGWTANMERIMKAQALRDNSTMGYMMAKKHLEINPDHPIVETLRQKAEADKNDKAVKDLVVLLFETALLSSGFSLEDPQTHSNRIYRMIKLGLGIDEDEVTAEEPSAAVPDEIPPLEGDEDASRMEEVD
T2 sequence (O08915 whole entry partner): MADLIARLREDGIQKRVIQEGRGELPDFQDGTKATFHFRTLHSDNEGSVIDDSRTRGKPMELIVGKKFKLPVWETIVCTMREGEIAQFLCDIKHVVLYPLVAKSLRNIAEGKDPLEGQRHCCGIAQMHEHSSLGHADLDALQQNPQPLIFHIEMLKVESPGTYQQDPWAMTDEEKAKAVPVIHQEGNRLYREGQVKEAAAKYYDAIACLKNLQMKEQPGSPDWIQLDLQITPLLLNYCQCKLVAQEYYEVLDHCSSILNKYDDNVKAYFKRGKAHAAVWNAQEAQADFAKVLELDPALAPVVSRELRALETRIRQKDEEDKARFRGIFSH

For `O=C1Nc2ccc(Cl)cc2C1=C1Nc2ccc(Cl)cc2C1=O` [2b, 5,5’-dichloroindirubin], the “potency relative to TCDD, in words” value at human AhR (human HG2L7.5c1 cells) was “comparable to or greater than TCDD”.
For the molecule `O=C1Nc2cc(Br)ccc2/C1=C1/Nc2cc(Br)ccc2C1=O` [2f, 6,6’-dibromoindirubin], the “potency relative to TCDD, in words” value on human AhR (human HG2L7.5c1 cells) is recorded as “comparable to or greater than TCDD”.
For the molecule `O=C1c2ccc(Br)cc2-n2c1nc1cc(Br)ccc1c2=O` [3f, 3,9-dibromotryptanthrin], on human AhR (human HG2L7.5c1 cells), the “increased potency compared to tryptanthrin (3)” value stood at 350 fold and the “potency relative to TCDD, in words” value is listed as “comparable to the potency of TCDD”. Also, on human AhR (human HG2L7.5c1 cells, listed as 3,9-dibromotryptanthrin), the “potency relative to TCDD, in words” value is on record as “equipotent”. Moreover, at human AhR (human HG2L7.5c1 cells, evaluated at 6h), the EC50 was 500 pM. Besides, the “AhR-dependent reporter gene activity (efficacy), in words” value (“AhR-dependent reporter gene activity” for short) on human AhR (human cells) is listed as “induced maximal AhR-dependent reporter gene activity”. Further, at mouse AhR [1], the “times less potent than TCDD” value was 4,000 fold and ~ 4,000 fold.
In the case of `O=C(O)Cc1ccc2c(c1)-n1c(nc3cc(CC(=O)O)ccc3c1=O)C2=O` [3g, 3,9-dicarboxymethylotryptanthrin], the “AhR-dependent reporter gene activity” value on human AhR (human cells) is “completely inactive”.
As to `O=C1c2ccccc2-n2c1nc1cc(Br)ccc1c2=O` [3h, 3-bromotryptanthrin], on human AhR (human HG2L7.5c1 cells), the “times more potent than TCDD” value was determined as 10 fold and the “increased potency compared to tryptanthrin (3)” value was 3,000 fold. The “AhR-dependent reporter gene activity” value on human AhR (human cells) was “comparable to that produced by a maximally inducing concentration of TCDD”. The “times less potent than TCDD” value at mouse AhR [1] is 10,000 fold. At mouse AhR [1] (listed as 3-bromotryptanthrin), the “times less potent than TCDD” value is listed as > 10,000 fold.
Take `Cc1ccccc1N=Nc1ccc(NC(=O)c2ccnn2C)c(C)c1` [CH223191]: the “inhibition of TCDD-dependent induction of luciferase reporter gene expression” value at AhR [2] is “inhibit”. Further, in the data set on AhR [3], the “effect of antagonist on AhR activation by indirubin” value was “little effect”; the “effect of antagonist on ability of TCDD to bind to and activate the AhR” value is listed as “effectively inhibit”.
In the case of `CC(C)n1cnc2c(NCCc3ccc(O)cc3)nc(-c3csc4ccccc34)nc21` [StemRegenin1], the “inhibition of TCDD-dependent induction of luciferase reporter gene expression” value against AhR [2] is “inhibit”.
For `Clc1cc2c(cc1Cl)Oc1cc(Cl)c(Cl)cc1O2` [TCDD, 2,3,7,8-tetrachlorodibenzo-p-dioxin, reference compound], the EC50 on human AhR (EC50 for gene induction at 24h of incubation, human cells, 24h incubation) is 300 pM; at mouse AhR [4], 100 pM.
Consider `O=C1Nc2ccccc2/C1=C1/Nc2ccccc2C1=O` [compound 2, Indirubin], for which, in the data set with AhR [5], the “less potent than TCDD” value is recorded as ~ 100.
`O=C1c2ccccc2-n2c1nc1ccccc1c2=O` [compound 3, Tryptanthrin]: the figures for the EC50 at human AhR and on mouse AhR [4] were 170000 pM and 810000 pM, respectively.
